Test results taken from PMC4104781 (Journal of controlled release : official journal of the …, 2013).

How the values were obtained:
[1] = Spectrometric; format: physicochemical; settings: aqueous buffer solutions at various pH, pH 3.5
[2] = format: physicochemical
[3] = TPT lactone-carboxylate interconversion; format: physicochemical; settings: 37 °C, aqueous buffers pH 5.92-7.67, fit of kinetic interconversion model
[4] = DSPC/DSPE-PEG2K bilayer, model fit of release profiles
[5] = DSPC/DSPE-PEG2K liposomes, 38.7 ± 0.1 °C, model fit over pH 3.35-7.67

- pKa [1]: 6.56 ± 0.12
- binding to the phospholipid bilayer, anionic carboxylate form (Ca) [2, 4]: negligible binding
- binding to the phospholipid bilayer, zwitterionic lactone (Ln) [2, 4]: negligible binding
- membrane partition coefficient, lactone species with unionized phenol (Lp) [2, 4]: 61.7 ± 5.9
- bilayer transport of the anionic carboxylate form (Ca) [2, 5]: impermeable
- carboxylic acid/lactone equilibrium constant (K0) [3]: 1.98 ± 0.07 × 10^−3
Compound: CC[C@@]1(O)C(=O)OCc2c1cc1n(c2=O)Cc2cc3c(CN(C)C)c(O)ccc3nc2-1 [TPT, topotecan]
- transport rate constant, cationic lactone species (Lp) [2, 5]: 0.51 ± 0.07 h⁻¹
- transport rate constant, ring-opened carboxylate zwitterion (Cn) [2, 5]: 5.7 ± 0.5 h⁻¹
- transport rate constant, zwitterionic lactone (Ln) [2, 5]: 33.9 ± 4.6 h⁻¹
- base-catalyzed ring-closing rate constant (kc,OH) [3]: 7.4 ± 0.3 × 10^8 mol^−1hr^−1
